The CheMixHub viscosity set
“And” between values parts separate entries of the source, which are not always exact repeats. Equal values may be shown once.

Assay: xn = mol fraction of the nth substance listed

Cc1ccc(O)cc1 + CS(C)=O
viscosity [mPa·s], 101 kPa
Details | x1 = 0.0702 | x1 = 0.1453 | x1 = 0.2257 | x1 = 0.3119 | x1 = 0.4047 | x1 = 0.505 | x1 = 0.5778 | x1 = 0.7312 | x1 = 0.8595
303.15 K | 2.036 | 2.307 | 2.913 | 3.456 | 4.277 | 5.056 | 6.524 | 7.908 | 9.499
308.15 K | 1.792 | 2.04 | 2.565 | 3.062 | 3.709 | 4.324 | 5.403 | 6.543 | 7.655
313.15 K | 1.604 | 1.833 | 2.293 | 2.698 | 3.24 | 3.769 | 4.649 | 5.745 | 6.083
318.15 K | 1.476 | 1.668 | 2.054 | 2.417 | 2.857 | 3.328 | 4.01 | 4.945 | 5.111

Cc1cccc(C)c1 + CS(C)=O
viscosity [mPa·s], 101.3 kPa
Details | x2 = 0.1004 | x2 = 0.2027 | x2 = 0.3047 | x2 = 0.4044 | x2 = 0.5057 | x2 = 0.6045 | x2 = 0.705 | x2 = 0.803 | x2 = 0.9011
298.15 K | 0.631 | 0.7 | 0.782 | 0.877 | 0.99 | 1.116 | 1.269 | 1.45 | 1.68
303.15 K | 0.593 | 0.657 | 0.73 | 0.815 | 0.914 | 1.026 | 1.168 | 1.325 | 1.528
308.15 K | 0.561 | 0.617 | 0.684 | 0.76 | 0.85 | 0.952 | 1.076 | 1.219 | 1.397

Cc1ccc(O)cc1 + C[N+](C)(C)CCO.[Cl-]
Details | viscosity
293.15 K, 101 kPa, x2 = 0.333 | 133.7 mPa·s
298.15 K, 101 kPa, x2 = 0.333 | 102 mPa·s
298.15 K, 101.33 kPa, x1 = 0.7 | 138.7 mPa·s
298.15 K, 101.33 kPa, x1 = 0.8 | 75.19 mPa·s and 55.19 mPa·s and 47.26 mPa·s
298.15 K, 101.33 kPa, x1 = 0.9 | 41.11 mPa·s
303.15 K, 101 kPa, x2 = 0.333 | 75.5 mPa·s
308.15 K, 101 kPa, x2 = 0.333 | 58.57 mPa·s
313.15 K, 101 kPa, x2 = 0.333 | 45.82 mPa·s
318.15 K, 101 kPa, x2 = 0.333 | 36.17 mPa·s
323.15 K, 101 kPa, x2 = 0.333 | 28.83 mPa·s

O=C[C@H](O)[C@H](O)[C@H](O)CO + C[N+](C)(C)CCO.[Cl-]
100 kPa, x2 = 0.6
Details | viscosity [mPa·s]
313.2 K | 575.5
318.2 K | 374.3

O=S(=O)(Cl)Cl + Cc1cc(C)cc(C)c1
298.15 K, 101 kPa
Details | viscosity [mPa·s]
x1 = 0.172 | 0.6735
x1 = 0.323 | 0.6885
x1 = 0.515 | 0.6997
x1 = 0.645 | 0.7028
x1 = 0.669 | 0.7025
x1 = 0.804 | 0.6976

Cc1cccc(C)c1 + Cc1ccc(C)cc1
viscosity [mPa·s], 101.3 kPa
Details | 298.15 K | 303.15 K
x1 = 0.0856 | – | 0.5666
x1 = 0.0857 | 0.6046 | –
x1 = 0.1427 | – | 0.5659
x1 = 0.1428 | 0.6026 | –
x1 = 0.2528 | 0.5998 | 0.5651
x1 = 0.3046 | – | 0.5648
x1 = 0.3922 | 0.5968 | 0.5643
x1 = 0.474 | 0.5955 | 0.5641
x1 = 0.5823 | – | 0.5636
x1 = 0.5824 | 0.5942 | –
x1 = 0.6995 | 0.5935 | 0.5627
x1 = 0.8337 | 0.5928 | –
x1 = 0.8339 | – | 0.5614
x1 = 0.9538 | 0.5899 | 0.5602

O=S1(=O)CCCC1 + Cc1ccc(C)cc1
viscosity
Details | x2 = 0.1118 | x2 = 0.2206 | x2 = 0.3266 | x2 = 0.4301 | x2 = 0.531 | x2 = 0.6293 | x2 = 0.7252 | x2 = 0.8191 | x2 = 0.9106
303.15 K, 101 kPa | 6.156 mPa·s and 6.156 mPa·s | 4.093 mPa·s and 4.093 mPa·s | 2.887 mPa·s and 2.887 mPa·s | 2.143 mPa·s and 2.143 mPa·s | 1.608 mPa·s and 1.608 mPa·s | 1.253 mPa·s and 1.253 mPa·s | 0.989 mPa·s and 0.9893 mPa·s | 0.812 mPa·s and 0.8122 mPa·s | 0.673 mPa·s and 0.6727 mPa·s
303.15 K, 101.3 kPa | 6.156 mPa·s | 4.093 mPa·s | 2.887 mPa·s | 2.143 mPa·s | 1.608 mPa·s | 1.253 mPa·s | 0.9893 mPa·s | 0.8122 mPa·s | 0.6727 mPa·s
313.15 K, 101 kPa | 4.883 mPa·s | 3.341 mPa·s | 2.384 mPa·s | 1.791 mPa·s | 1.351 mPa·s | 1.066 mPa·s | 0.8516 mPa·s | 0.7111 mPa·s | 0.5929 mPa·s
323.15 K, 101 kPa | 3.964 mPa·s and 3.964 mPa·s | 2.74 mPa·s and 2.74 mPa·s | 2 mPa·s and 2 mPa·s | 1.526 mPa·s and 1.526 mPa·s | 1.166 mPa·s and 1.166 mPa·s | 0.925 mPa·s and 0.9254 mPa·s | 0.747 mPa·s and 0.7473 mPa·s | 0.627 mPa·s and 0.6269 mPa·s | 0.53 mPa·s and 0.53 mPa·s
323.15 K, 101.3 kPa | 3.964 mPa·s | 2.74 mPa·s | 2 mPa·s | 1.526 mPa·s | 1.166 mPa·s | 0.9254 mPa·s | 0.7473 mPa·s | 0.6269 mPa·s | 0.53 mPa·s

Nc1ccccc1Cl + Cc1ccc(Cl)cc1
viscosity [mPa·s], 101 kPa
Details | x1 = 0.1012 | x1 = 0.2102 | x1 = 0.3125 | x1 = 0.4056 | x1 = 0.5142 | x1 = 0.6125 | x1 = 0.6952 | x1 = 0.7859 | x1 = 0.8859
303.15 K | 0.9617 | 1.175 | 1.405 | 1.644 | 1.963 | 2.287 | 2.586 | 2.936 | 3.344
308.15 K | 0.8921 | 1.097 | 1.318 | 1.543 | 1.833 | 2.12 | 2.377 | 2.674 | 3.014
313.15 K | 0.8377 | 1.031 | 1.238 | 1.446 | 1.711 | 1.968 | 2.195 | 2.451 | 2.737
318.15 K | 0.7836 | 0.9716 | 1.17 | 1.368 | 1.616 | 1.852 | 2.054 | 2.275 | 2.511
